Experimental data from patent publication US8685936B2, “Sphingosine kinase inhibitor prodrugs” (Apogee Biotechnology Corporation, priority 2009, dated 2014).
“Also recorded” adds a separate entry of the source.

What was measured:
[1] = Conversion of Compound 2 to Compound 1 in living mice; plasma levels of Compound 1 by HPLC; type: in vivo
Protocol: FIG. 4. Conversion of Compound 2 into Compound 1 in vivo. Balb/C female mice, 6-8 weeks old, were dosed with either Compound 1 (●) or Compound 2 (♦) at 50 mg/kg by intravenous injection. Mice were euthanized at the indicate times after injection, and blood was harvested by cardiac puncture and plasma was prepared. The plasma was then extracted and analyzed for Compound 1 levels by HPLC.
To extend the in vitro studies described above, the ability of Compound 2 to be converted to Compound 1 in an in vivo test system was determined. In these experiments, Compound 1 or Compound 2 was dissolved in PEG400 and administered to female Balb/C mice at a dose of 50 mg/kg by intravenous injection. Mice were sacrificed and blood was removed via cardiac puncture at 2 minutes, 15 minutes, 30 minutes or 60 minutes. The concentration of Compound 1 in the blood of the animals at each of the time points was determined using HPLC with UV detection as described in the previous Example. […] In the case of administration of Compound 2, plasma concentrations of Compound 1 rose during the first 30 minutes and then were decreased with a half-time of clearance of approximately 20 minutes.

[2] = tested on: Murine JC mammary adenocarcinoma cells; assay: Cytotoxicity, MTS cell viability assay; type: cell-based; conditions: 72 hours
Source text: FIG. 5. Inhibition of tumor cell proliferation by Compound 1 and Compound 2. Murine JC mammary adenocarcinoma cells were exposed to the indicated concentrations of either Compound 1 (▪) or Compound 2 (▴) for 72 hr. At the end of the exposure, the number of viable tumor cells was quantified using the MTS assay. Values represent the fraction of surviving cells compared with DMSO-(vehicle)-treated control cells.
To further assess the biological efficacies of the Compounds in intact cells, Compound 1 and Compound 2 were evaluated for cytotoxicity using a murine breast cancer cell line. These experiments followed methods that have been extensively used. The cells were treated with varying doses of the test Compound for 72 hours, and then cell viability was measured using CellTiter 96® AQueous Non-Radioactive Cell Proliferation Assay (MTS) available from Promega Corporation. Values represent the mean±std. dev. percentage of cells that survive at each of the indicated concentrations of Compound 1 or Compound 2. […] However, the extent of cell killing and the potency for cell killing were greater for Compound 2 than Compound 1.

DSS-colitis model = assay: Acute DSS-colitis model of inflammatory bowel disease; type: in vivo, C57BL/6 mice
Protocol: FIG. 7. Effects of Compound 1 and Compound 2 on the Disease Activity Index (DAI) in the acute DSS-colitis model. […] After 6 days, the DAI was calculated for each group. Values represent the mean±std. dev. for 5-6 mice per group. […] FIG. 8. Effects of Compound 1 and Compound 2 on colon length in the acute DSS-colitis model. […] After 6 days, the animals were sacrificed and the length of the colon was measured. Values represent the mean±std. dev. for 6-7 mice per group. In this model, colon length decreases as the disease progresses. […] FIG. 9. Effects of Compound 1 and Compound 2 on neutrophil infiltration into the colon in the acute DSS-colitis model. […] After 6 days, the animals were sacrificed and the colons were harvested. Myeloperoxidase activity (MPO) was measured and normalized by the protein concentration of the samples. Values represent the mean±std. dev. for 6-7 mice per group. In this model, MPO activity in the colon increases as a result of neutrophil infiltration into the colon as the disease progresses. […] FIG. 10. Effects of ester prodrugs on colon length in the acute DSS-colitis model. C57BL/6 mice were treated for 6 days as follows: 2% DSS in the drinking water and daily oral administration of Vehicle (described in FIG. 7); or 2% DSS in the drinking water and oral administration of 50 mg/kg the indicated ester prodrugs in Vehicle. After 6 days, the animals were sacrificed and the length of the colon was measured. Values represent the mean±std. dev. for 4-5 mice per group. In this model, colon length decreases as the disease progresses. […] FIG. 11. Effects of ester prodrugs on neutrophil infiltration into the colon in the acute DSS-colitis model. C57BL/6 mice were treated for 6 days as follows: 2% DSS in the drinking water and daily oral administration of Vehicle (described in FIG. 7); or 2% DSS in the drinking water and oral administration of 50 mg/kg the indicated ester prodrugs in Vehicle. After 6 days, the animals were sacrificed and the length of the colon was measured. Values represent the mean±std. dev. for 4-5 mice per group. In this model, MPO activity in the colon increases as a result of neutrophil infiltration into the colon as the disease progresses. […] In these experiments, male C57BL/6 mice were provided with standard rodent diet and water ad libitum. After their acclimation, the animals were randomly divided into groups of 5 or 6 for DSS (40,000 MW from ICN Biomedicals, Inc., Aurora, Ohio)- and drug-treatment. The Compounds were dissolved in a Vehicle consisting of 46.7% PEG 400, 46.7% of a solution of 0.375% Tween 80 in saline and 6.6% ethanol, and given once daily (starting on Day 0) by oral gavage in a volume of 0.1 mL per dose. The mice were given normal drinking water or 2% DSS (starting on Day 0) and treated orally with Compound 1 or Compound 2 at a dose of 50 mg/kg daily. The body weight of each animal was measured each day, and the Disease Activity Index (DAI) was scored for each animal on Day 6. On Day 6, the animals were sacrificed by cervical dislocation and the entire colon was removed and measured to the nearest 0.1 cm. The distal 3 cm of the colons were used for biochemical analyses of inflammation markers.

CC(=O)Oc1ccc(CCNC(=O)C23CC4CC(C2)CC(c2ccc(Cl)cc2)(C4)C3)cc1OC(C)=O [Compound 2, Acetic acid 2-acetoxy-5-(2-{[3-(4-chlorophenyl)-adamantane-1-carbonyl]-amino}ethyl)phenyl ester]
area-under-the-curve (AUC) for exposure to circulating Compound 1, compared with dosing Compound 1 itself ([1]; 50 mg/kg intravenous, female Balb/C mice): much greater
half-time for clearance of Compound 1 from plasma ([1]; 50 mg/kg of the named compound by intravenous injection in PEG400, female Balb/C mice, Compound 1 measured): approximately 20 minutes
extent of cell killing, Compound 2 compared with Compound 1 [2]: greater
inhibition of tumor cell proliferation (cell viability) [2]: can inhibit tumor cell proliferation
potency for cell killing, Compound 2 compared with Compound 1 [2]: greater
Disease Activity Index (DAI) (DSS-colitis model; 2% DSS in drinking water, 50 mg/kg daily oral, Day 6, C57BL/6 mice, 50 mg/kg): reduced the intensity of the IBD manifestations; also recorded: superior to Compound 1 in reducing the DAI
colon myeloperoxidase (MPO) activity (neutrophil infiltration) (DSS-colitis model; 2% DSS, 50 mg/kg daily oral, Day 6, C57BL/6 mice (Example 16, FIG. 9), 50 mg/kg): markedly attenuated; also recorded: reduced to a greater extent
colon length (contraction of the colon), ester prodrugs (DSS-colitis model; 2% DSS, 50 mg/kg oral, 6 days, C57BL/6 mice, 4-5 per group (Example 17, FIG. 10)): effective in preventing the contraction of the colons
colon length (DSS-colitis model; 2% DSS, 50 mg/kg oral, Day 6, C57BL/6 mice (Example 16, FIG. 8), 50 mg/kg): colons of significantly longer length; also recorded: superior to the protective effect of Compound 1
